Data from patent publication US20190117634A1, “Treatment of Vulvodynia” (Gruenenthal GmbH, priority 2017, published 2019).

Experiment: in vitro permeation/penetration in porcine vaginal tissue (Franz diffusion cell)
Assay type: in vitro ADME
Protocol: The permeation/penetration of the formulation according to Example 1 in porcine vaginal tissue was assessed by in vitro experiments.
The in vitro experiments involved the use of a Franz diffusion cell designed to mimic the physiological and anatomical conditions of porcine vaginal tissue in situ. Porcine vaginal tissue skin was positioned between the two halves of a Franz diffusion cell with the vaginal epithelium facing the donor compartment allowing for drug product application. The other side of the porcine vaginal tissue skin faced a receiver fluid comprising 2% w/v Tween 80 in 20% v/v PEG 400 in water.
Prior to dosing of the formulation on the tissue, the integrity of the tissue was assessed as follows: • (i) Porcine vaginal tissue was mounted between the donor and receiver compartments and the cells were sealed together using Parafilm®. • (ii) The donor and receiver chambers were filled with PBS solution and a small magnetic follower was placed in the receiver compartment. • (iii) Cells were equilibrated in a water bath, ensuring a membrane temperature of 32° C. for 30 min. • (iv) The electrodes of the ISO-TECH LCR821 Meter were placed in the receiver chamber through the sampling arm and the donor chamber and the LCR was set at 100 Hz and set to ‘R’ for resistance. • (v) The resistance of the tissue in each Franz cell was measured using a ISO-TECH LCR821 Meter (SOP 3174). Cells with a resistance below the acceptable limits were discarded and remounted.
Following the tissue integrity testing, the PBS solutions were removed from each compartment and the receiver compartments of cells passing the resistance criteria were filled with receiver fluid. Each cell was then equilibrated to ensure a surface temperature of 32° C. (external skin surface temperature) for at least 30 min prior to dosing. An additional Franz cell was also mounted but not dosed (to act as a blank) to assess interference with sample quantification.
A positive displacement pipette was used to apply 6-8 mg of the formulation of table 1 to the tissue surface. Prior to application the weight of each test formulation was verified by weighing the amount dispensed by the positive displacement pipette into an empty vial (n=6).
Receiver fluid (200 μL) was removed at the following time points t=0, 1, 2, 4, 6 and 24 h and transferred to a HPLC vial for analysis. Fresh pre-warmed (37° C.) receiver fluid was used to replace the receiver fluid removed at each time point. Following the 24 h time point, remaining receiver fluid was removed from the Franz cells and the drug was recovered. […]

[1] = formulation of Example 1, after 24 h, Franz cell

SMILES: CN(C)[C@]1(c2cccc(F)c2)CC[C@]2(CC1)c1[nH]c3ccccc3c1CCN2C(=O)/C=C/c1ccccc1 [pharmacologically active compound, cis-(E)-4-(3-fluorophenyl)-2′,3′,4′,9′-tetrahydro-N,N-dimethyl-2′-(1-oxo-3-phenyl-2-propenyl)-spiro[cyclohexane-1,1′[1H]-pyrido[3,4-b]indol]-4-amine]
- Mean recovery of the pharmacologically active compound from the epithelium of porcine vaginal tissue (formulation of Example 1 (2.60 wt.-% compound), 6-8 mg applied, after 24 h, Franz cell, 32° C.): 9.72 μg
- Mean recovery of the pharmacologically active compound from the epithelium of porcine vaginal tissue [1]: 810.21 μg/mL
- Total concentration presented to vaginal epithelium [1]: 1596.04 µM
- permeation into the epithelium of porcine vaginal tissue (in words) (formulation of Example 1, in vitro, 24 h): permeates into the epithelium of porcine vaginal tissue
